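48-hour exposure; five concentrations; linearly interpolated endpoints. Here, GI50 denotes the concentration required for 50% inhibition of growth.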 Active and inactive are the calls of the source. Rule as the data show it: active = GI50 up to about 1.1 µM and inactive = higher.
Legend:
Assay in all cases: inhibition of tumour cell growth, NCI panel, 48 h
LOX IMVI = system: LOX IMVI
KM-20L2 = system: KM-20L2
NCI-H460 = system: NCI-H460
HOP-62 = system: HOP-62
M14 = system: M14
SN12C = system: SN12C
UACC-257 = system: UACC-257
SK-MEL-28 = system: SK-MEL-28
SF-295 = system: SF-295
UACC-62 = system: UACC-62
SF-268 = system: SF-268
A549 = system: A549
RPMI-8226 = system: RPMI-8226
MOLT-4 = system: MOLT-4
COLO 205 = system: COLO 205
IGROV-1 = system: IGROV-1
786-0 = system: 786-0
HCC 2998 = system: HCC 2998
MDA-MB-435 = system: MDA-MB-435
MDA-N = system: MDA-N

| SMILES | GI50 (LOX IMVI) | GI50 (KM-20L2) | GI50 (NCI-H460) | GI50 (HOP-62) | GI50 (M14) | GI50 (SN12C) | GI50 (UACC-257) | GI50 (SK-MEL-28) | GI50 (SF-295) | GI50 (UACC-62) | GI50 (SF-268) | GI50 (A549) | GI50 (RPMI-8226) | GI50 (MOLT-4) | GI50 (COLO 205) | GI50 (IGROV-1) | GI50 (786-0) | GI50 (HCC 2998) | GI50 (MDA-MB-435) | GI50 (MDA-N) |
| --- | --- | --- | --- | --- | --- | --- | --- | --- | --- | --- | --- | --- | --- | --- | --- | --- | --- | --- | --- | --- |
| N#Cc1cccc(N2C(=O)c3c(c(-c4ccccc4)c(-c4ccc(Sc5ccc(-c6c(-c7ccccc7)c7c(c(-c8ccccc8)c6-c6ccccc6)C(=O)N(c6cccc(C#N)c6)C7=O)cc5)cc4)c(-c4ccccc4)c3-c3ccccc3)C2=O)c1 | 78.2 µM (inactive) | > 100 µM (inactive) | > 100 µM (inactive) | 89.3 µM (inactive) | > 100 µM (inactive) | 23.9 µM (inactive) | > 100 µM (inactive) | > 100 µM (inactive) | > 100 µM (inactive) | 61.7 µM (inactive) | 55.7 µM (inactive) | > 100 µM (inactive) | > 100 µM (inactive) | 49.2 µM (inactive) | > 100 µM (inactive) | 28.8 µM (inactive) | > 100 µM (inactive) | > 100 µM (inactive) | – | – |
| C[S+]([O-])c1ccc(COP(N)(=O)N(CCCl)CCCl)cc1 (stereo not drawn) | > 100 µM (inactive) | > 100 µM (inactive) | > 100 µM (inactive) | > 100 µM (inactive) | > 100 µM (inactive) | > 100 µM (inactive) | > 100 µM (inactive) | > 100 µM (inactive) | > 100 µM (inactive) | > 100 µM (inactive) | > 100 µM (inactive) | > 100 µM (inactive) | > 100 µM (inactive) | > 100 µM (inactive) | > 100 µM (inactive) | > 100 µM (inactive) | > 100 µM (inactive) | > 100 µM (inactive) | – | – |
| N/C(=N\N=C\c1c[nH]c2ccccc12)Nc1ccccc1 | 0.36 µM (active) | 0.327 µM (active) | 0.251 µM (active) | 0.308 µM (active) | 0.11 µM (active) | 0.535 µM (active) | 0.304 µM (active) | 0.789 µM (active) | 0.134 µM (active) | 0.248 µM (active) | 0.573 µM (active) | 0.455 µM (active) | 1 µM (active) | 0.938 µM (active) | 0.188 µM (active) | 0.865 µM (active) | 0.318 µM (active) | 0.594 µM (active) | 0.02 µM (active) | 0.0219 µM (active) |
| Cc1c(Cl)cccc1NC(=O)C(=O)C1C(=O)NC(=O)NC1=O | > 100 µM (inactive) | > 100 µM (inactive) | > 100 µM (inactive) | > 100 µM (inactive) | > 100 µM (inactive) | > 100 µM (inactive) | > 100 µM (inactive) | > 100 µM (inactive) | > 100 µM (inactive) | > 100 µM (inactive) | > 100 µM (inactive) | > 100 µM (inactive) | > 100 µM (inactive) | > 100 µM (inactive) | > 100 µM (inactive) | > 100 µM (inactive) | > 100 µM (inactive) | > 100 µM (inactive) | – | – |
| COC(=O)CCC(=O)N1CC1C (stereo not drawn) | > 100 µM (inactive) | > 100 µM (inactive) | > 100 µM (inactive) | > 100 µM (inactive) | > 100 µM (inactive) | > 100 µM (inactive) | > 100 µM (inactive) | > 100 µM (inactive) | > 100 µM (inactive) | > 100 µM (inactive) | > 100 µM (inactive) | > 100 µM (inactive) | > 100 µM (inactive) | > 100 µM (inactive) | > 100 µM (inactive) | > 100 µM (inactive) | > 100 µM (inactive) | > 100 µM (inactive) | – | – |
| CCOc1ccc(NC(=O)C(=O)NO)cc1 | > 100 µM (inactive) | > 100 µM (inactive) | > 100 µM (inactive) | > 100 µM (inactive) | > 100 µM (inactive) | > 100 µM (inactive) | > 100 µM (inactive) | > 100 µM (inactive) | > 100 µM (inactive) | > 100 µM (inactive) | > 100 µM (inactive) | > 100 µM (inactive) | > 100 µM (inactive) | > 100 µM (inactive) | > 100 µM (inactive) | > 100 µM (inactive) | > 100 µM (inactive) | > 100 µM (inactive) | – | – |
| BrC12c3ccccc3Sc3ccccc3C1(Br)c1ccccc12 (stereo not drawn) | 15.8 µM (inactive) | 20.6 µM (inactive) | 40.2 µM (inactive) | 19.5 µM (inactive) | 15.2 µM (inactive) | 25.8 µM (inactive) | 22.3 µM (inactive) | – | 23.7 µM (inactive) | 16.7 µM (inactive) | 32.4 µM (inactive) | 27.7 µM (inactive) | 13.5 µM (inactive) | 10.7 µM (inactive) | 28.8 µM (inactive) | 27 µM (inactive) | 34.5 µM (inactive) | 28.8 µM (inactive) | – | – |
| COc1ccc(/C=C2\CCC(C)(CN(C)C)C2=O)cc1Br (stereo not drawn) | 18.2 µM (inactive) | 1.26 µM (inactive) | 26.7 µM (inactive) | 49.3 µM (inactive) | 19.8 µM (inactive) | 17.5 µM (inactive) | 19.5 µM (inactive) | 22.9 µM (inactive) | 26.3 µM (inactive) | 4.03 µM (inactive) | 16.5 µM (inactive) | 38.4 µM (inactive) | 19.1 µM (inactive) | 20.3 µM (inactive) | 18.5 µM (inactive) | 16.2 µM (inactive) | 19.6 µM (inactive) | 20.8 µM (inactive) | 24.5 µM (inactive) | 19.1 µM (inactive) |
| CS/C(C)=N/OC(=O)NCCCCNc1ccc(N=[N+]=[N-])cc1 | 26.7 µM (inactive) | 41.5 µM (inactive) | 35 µM (inactive) | 48.2 µM (inactive) | 37.7 µM (inactive) | 59.2 µM (inactive) | 30.9 µM (inactive) | 49.7 µM (inactive) | 28.5 µM (inactive) | 21.8 µM (inactive) | 32.7 µM (inactive) | 30.4 µM (inactive) | 18.4 µM (inactive) | 28.4 µM (inactive) | 36.1 µM (inactive) | 87.3 µM (inactive) | 76.7 µM (inactive) | 23.9 µM (inactive) | – | – |
| CN1CCC(CN2c3ccccc3Sc3ccccc32)CC1 | 13.5 µM (inactive) | 12.9 µM (inactive) | 14.7 µM (inactive) | 18 µM (inactive) | 13 µM (inactive) | 19.1 µM (inactive) | 14.6 µM (inactive) | 11 µM (inactive) | 15.8 µM (inactive) | 14.8 µM (inactive) | 15.4 µM (inactive) | 15.1 µM (inactive) | 12.7 µM (inactive) | 15.5 µM (inactive) | 14.1 µM (inactive) | 16.7 µM (inactive) | 14.3 µM (inactive) | 12.9 µM (inactive) | – | – |

— ChEMBL document CHEMBL1201862, “PubChem BioAssay data set” (2004)
